Assay results from patent publication US11339130B1 (Blade Therapeutics, Inc., priority 2016, dated 2022).

Experiments:
Format in all cases: biochemical
Human Calpain 9/NS1 = target: T1, Human Calpain 9/NS1 (Homo sapiens, UniProt O14815); assay: Calpain inhibition continuous fluorescence (FRET) assay, Human Calpain 9/NS1; details: Column C; read-out: Human Calpain 9/NS1 IC50
T1 sequence (O14815 1-690): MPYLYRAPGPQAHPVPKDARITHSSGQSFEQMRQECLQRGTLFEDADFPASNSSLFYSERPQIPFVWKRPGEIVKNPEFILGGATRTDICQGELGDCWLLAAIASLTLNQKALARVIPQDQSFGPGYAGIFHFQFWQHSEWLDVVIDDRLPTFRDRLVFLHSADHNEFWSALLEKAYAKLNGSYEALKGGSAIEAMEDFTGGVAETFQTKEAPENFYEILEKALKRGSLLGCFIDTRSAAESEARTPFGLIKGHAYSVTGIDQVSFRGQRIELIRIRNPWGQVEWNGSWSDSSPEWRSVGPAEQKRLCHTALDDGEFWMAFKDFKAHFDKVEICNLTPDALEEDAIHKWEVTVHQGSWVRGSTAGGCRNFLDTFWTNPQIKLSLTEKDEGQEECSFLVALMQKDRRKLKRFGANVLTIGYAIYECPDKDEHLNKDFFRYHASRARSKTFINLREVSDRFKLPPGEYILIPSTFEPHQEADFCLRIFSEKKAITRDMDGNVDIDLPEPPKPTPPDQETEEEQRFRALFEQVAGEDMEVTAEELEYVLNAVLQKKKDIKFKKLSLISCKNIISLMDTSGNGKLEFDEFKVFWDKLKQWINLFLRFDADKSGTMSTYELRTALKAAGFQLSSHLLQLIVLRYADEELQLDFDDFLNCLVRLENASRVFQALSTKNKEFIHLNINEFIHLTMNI
T1 sequence (P04632 1-268 partner): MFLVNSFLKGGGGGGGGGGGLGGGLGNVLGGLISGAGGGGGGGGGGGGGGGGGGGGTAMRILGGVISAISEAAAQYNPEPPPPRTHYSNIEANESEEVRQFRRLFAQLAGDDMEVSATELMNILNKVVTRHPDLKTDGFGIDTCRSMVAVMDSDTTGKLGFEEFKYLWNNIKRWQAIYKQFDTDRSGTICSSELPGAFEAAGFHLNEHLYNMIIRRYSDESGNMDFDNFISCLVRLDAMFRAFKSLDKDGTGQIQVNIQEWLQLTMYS
Summary of the method: (§1)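 Inhibitors were preincubated with calpain in 50 mM Tris pH 7.5, 100 mM NaCl, 1 mM DTT at 25C. Reactions were started with 5-FAM/QXL 520 FRET peptide substrate plus CaCl2 and read at 490/520 nm for 10 min. IC50s came from 4-parameter fits of slope rates (1-5 min).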

Human Calpain 2/NS1 = target: T2, Human Calpain 2/NS1 (Homo sapiens, UniProt P17655); assay: Calpain inhibition continuous fluorescence (FRET) assay, Human Calpain 2/NS1; details: Column B; read-out: Human Calpain 2/NS1 IC50
T2 sequence (P17655 1-700): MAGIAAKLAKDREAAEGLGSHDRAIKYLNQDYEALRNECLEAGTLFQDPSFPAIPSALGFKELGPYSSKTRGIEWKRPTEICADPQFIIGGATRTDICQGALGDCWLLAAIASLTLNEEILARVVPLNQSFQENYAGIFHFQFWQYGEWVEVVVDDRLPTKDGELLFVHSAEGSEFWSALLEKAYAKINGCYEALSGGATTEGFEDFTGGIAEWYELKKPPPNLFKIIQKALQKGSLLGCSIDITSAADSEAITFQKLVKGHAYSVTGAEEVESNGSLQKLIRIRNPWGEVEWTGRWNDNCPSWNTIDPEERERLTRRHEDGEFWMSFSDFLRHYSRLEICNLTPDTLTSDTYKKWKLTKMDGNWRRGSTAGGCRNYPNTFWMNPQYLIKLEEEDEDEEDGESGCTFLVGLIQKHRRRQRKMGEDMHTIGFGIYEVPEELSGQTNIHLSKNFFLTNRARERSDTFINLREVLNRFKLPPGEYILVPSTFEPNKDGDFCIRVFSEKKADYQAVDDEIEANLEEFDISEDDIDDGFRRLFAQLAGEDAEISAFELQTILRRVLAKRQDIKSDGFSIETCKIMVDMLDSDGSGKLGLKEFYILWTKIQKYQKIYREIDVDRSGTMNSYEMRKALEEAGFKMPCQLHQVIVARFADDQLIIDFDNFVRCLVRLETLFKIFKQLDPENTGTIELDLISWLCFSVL
T2 sequence (P04632 1-268 partner): T1 sequence (P04632 1-268 partner)
Summary of the method: as §1

Human Calpain 1/NS1 = target: T3, Human Calpain 1/NS1 (Homo sapiens, UniProt P07384); assay: Calpain inhibition continuous fluorescence (FRET) assay, Human Calpain 1/NS1; details: Column A; read-out: Human Calpain 1/NS1 IC50
T3 sequence (P07384 1-714): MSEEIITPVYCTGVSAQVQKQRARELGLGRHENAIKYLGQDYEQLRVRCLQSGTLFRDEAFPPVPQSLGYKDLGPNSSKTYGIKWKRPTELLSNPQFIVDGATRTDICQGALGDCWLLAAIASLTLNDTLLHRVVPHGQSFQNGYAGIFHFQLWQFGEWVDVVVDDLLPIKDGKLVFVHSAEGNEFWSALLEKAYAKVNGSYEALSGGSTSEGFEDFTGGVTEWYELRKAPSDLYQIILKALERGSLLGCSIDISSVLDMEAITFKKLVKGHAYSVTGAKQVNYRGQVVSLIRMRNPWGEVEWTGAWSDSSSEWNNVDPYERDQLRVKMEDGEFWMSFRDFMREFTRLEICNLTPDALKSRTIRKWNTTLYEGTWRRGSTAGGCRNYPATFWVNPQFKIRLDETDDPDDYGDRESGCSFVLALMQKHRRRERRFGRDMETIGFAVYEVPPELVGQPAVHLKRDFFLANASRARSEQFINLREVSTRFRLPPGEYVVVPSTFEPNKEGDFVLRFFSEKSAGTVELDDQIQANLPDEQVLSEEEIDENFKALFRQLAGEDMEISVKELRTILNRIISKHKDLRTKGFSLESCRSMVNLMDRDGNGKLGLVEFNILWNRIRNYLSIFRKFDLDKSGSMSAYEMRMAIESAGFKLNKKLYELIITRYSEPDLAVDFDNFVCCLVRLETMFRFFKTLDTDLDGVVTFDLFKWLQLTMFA
T3 sequence (P04632 1-268 partner): T1 sequence (P04632 1-268 partner)
Summary of the method: as §1

In the case of `Cc1cc(C(=O)N[C@@H](Cc2ccccc2)C(=O)C(=O)NC2CC2)n(-c2cncc3ccccc23)n1` [Compound 134, (S)—N-(4-(cyclopropylamino)-3,4-dioxo-1-phenylbutan-2-yl)-1-(isoquinolin-4-yl)-3-methyl-1H-pyrazole-5-carboxamide], the IC50 (Human Calpain 9/NS1) is reported as 3 to 10 µM, the IC50 (Human Calpain 2/NS1) is reported as 3 to 10 µM and the IC50 (Human Calpain 1/NS1) is reported as 3 to 10 µM.
With `O=C(NC1CC1)C(=O)[C@H](Cc1ccccc1)NC(=O)c1sc(C2CC2)nc1-c1ccccc1` [Compound 135, (S)-2-cyclopropyl-N-(4-(cyclopropylamino)-3,4-dioxo-1-phenylbutan-2-yl)-4-phenylthiazole-5-carboxamide] the IC50 (Human Calpain 9/NS1) was over 10 µM, the IC50 (Human Calpain 2/NS1) was under 3 µM and the IC50 (Human Calpain 1/NS1) was under 3 µM.
`CC(C)(C)c1cc(C(=O)N[C@@H](Cc2ccccc2)C(=O)C(=O)NC2CC2)n(-c2ccccc2)n1` [Compound 137, (S)-3-(tert-butyl)-N-(4-(cyclopropylamino)-3,4-dioxo-1-phenylbutan-2-yl)-1-phenyl-1H-pyrazole-5-carboxamide] was tested, and the IC50 (Human Calpain 9/NS1) was over 10 µM, the IC50 (Human Calpain 2/NS1) was over 10 µM and the IC50 (Human Calpain 1/NS1) was over 10 µM.
With `Cc1cc(C(=O)N[C@@H](Cc2ccccc2)C(=O)C(N)=O)n(-c2cncnc2)n1` [Compound 138, (S)—N-(4-amino-3,4-dioxo-1-phenylbutan-2-yl)-3-methyl-1-(pyrimidin-5-yl)-1H-pyrazole-5-carboxamide] the IC50 (Human Calpain 9/NS1) was under 3 µM, the IC50 (Human Calpain 2/NS1) was under 3 µM and the IC50 (Human Calpain 1/NS1) was under 3 µM.
In the case of `Cc1noc(-n2cc3ccccc3n2)c1C(=O)N[C@@H](Cc1ccccc1)C(=O)C(N)=O` [Compound 139, (S)—N-(4-amino-3,4-dioxo-1-phenylbutan-2-yl)-5-(2H-indazol-2-yl)-3-methylisoxazole-4-carboxamide], the IC50 (Human Calpain 9/NS1) is reported as under 3 µM, the IC50 (Human Calpain 2/NS1) is reported as under 3 µM and the IC50 (Human Calpain 1/NS1) is reported as under 3 µM.
For `NC(=O)C(=O)[C@H](Cc1ccccc1)NC(=O)c1ncoc1-c1ccccc1` [Compound 148, (S)—N-(4-amino-3,4-dioxo-1-phenylbutan-2-yl)-5-phenyloxazole-4-carboxamide], the IC50 (Human Calpain 9/NS1) was under 3 µM, the IC50 (Human Calpain 2/NS1) was under 3 µM and the IC50 (Human Calpain 1/NS1) was under 3 µM.
`Cc1cc(C(=O)N[C@@H](Cc2ccccc2)C(=O)C(=O)NCc2ccc(Cl)c(Cl)c2)n(-c2ccccc2)n1` [Compound 149, (S)—N-(4-((3,4-dichlorobenzyl)amino)-3,4-dioxo-1-phenylbutan-2-yl)-3-methyl-1-phenyl-1H-pyrazole-5-carboxamide] gave an IC50 (Human Calpain 9/NS1) of over 10 µM, an IC50 (Human Calpain 2/NS1) of over 10 µM and an IC50 (Human Calpain 1/NS1) of over 10 µM.
For `Cc1noc(-c2ccccc2)c1C(=O)N[C@@H](Cc1ccccc1)C(=O)C(=O)NCc1cccc(OC(F)(F)F)c1` [Compound 150, (S)—N-(3,4-dioxo-1-phenyl-4-((3-(trifluoromethoxy)benzyl)amino)butan-2-yl)-3-methyl-5-phenylisoxazole-4-carboxamide], the IC50 (Human Calpain 9/NS1) was over 10 µM, the IC50 (Human Calpain 2/NS1) was over 10 µM and the IC50 (Human Calpain 1/NS1) was over 10 µM.
With `Cc1noc(-c2ccccc2)c1C(=O)N[C@@H](Cc1ccccc1)C(=O)C(=O)NCc1ccc(S(C)(=O)=O)cc1` [Compound 151, (S)-3-methyl-N-(4-((4-(methylsulfonyl)benzyl)amino)-3,4-dioxo-1-phenylbutan-2-yl)-5-phenylisoxazole-4-carboxamide] the IC50 (Human Calpain 9/NS1) was under 3 µM, the IC50 (Human Calpain 2/NS1) was under 3 µM and the IC50 (Human Calpain 1/NS1) was under 3 µM.
Compound `Cc1noc(-c2ccccc2)c1C(=O)N[C@@H](Cc1ccccc1)C(=O)C(=O)NCc1cccc(S(C)(=O)=O)c1` [Compound 152, (s)-3-methyl-N-(4-((3-(methylsulfonyl)benzyl)amino)-3,4-dioxo-1-phenylbutan-2-yl)-5-phenylisoxazole-4-carboxamide] has an IC50 (Human Calpain 9/NS1) of under 3 µM, an IC50 (Human Calpain 2/NS1) of under 3 µM and an IC50 (Human Calpain 1/NS1) of under 3 µM.
Compound `Cn1ncc(C(=O)N[C@@H](Cc2ccccc2)C(=O)C(N)=O)c1-c1ccncc1` [Compound 165, (S)—N-(4-amino-3,4-dioxo-1-phenylbutan-2-yl)-1-methyl-5-(pyridin-4-yl)-1H-pyrazole-4-carboxamide] has an IC50 (Human Calpain 9/NS1) of under 3 µM, an IC50 (Human Calpain 2/NS1) of under 3 µM and an IC50 (Human Calpain 1/NS1) of under 3 µM.
For `Cc1ccc(-c2c(C(=O)N[C@@H](Cc3ccccc3)C(=O)C(N)=O)cnn2C)cc1` [Compound 167, (S)—N-(4-amino-3,4-dioxo-1-phenylbutan-2-yl)-1-methyl-5-(p-tolyl)-1H-pyrazole-4-carboxamide], the IC50 (Human Calpain 9/NS1) was under 3 µM, the IC50 (Human Calpain 2/NS1) was under 3 µM and the IC50 (Human Calpain 1/NS1) was under 3 µM.
`Cn1cc(C(=O)N[C@@H](Cc2ccccc2)C(=O)C(N)=O)c(-c2ccccn2)n1` [Compound 169, (S)—N-(4-amino-3,4-dioxo-1-phenylbutan-2-yl)-1-methyl-3-(pyridin-2-yl)-1H-pyrazole-4-carboxamide] gave an IC50 (Human Calpain 9/NS1) of under 3 µM, an IC50 (Human Calpain 2/NS1) of under 3 µM and an IC50 (Human Calpain 1/NS1) of under 3 µM.
Work on `Cn1ncc(C(=O)N[C@@H](Cc2ccccc2)C(=O)C(N)=O)c1-c1cncnc1` [Compound 176, (S)—N-(4-amino-3,4-dioxo-1-phenylbutan-2-yl)-1-methyl-5-(pyrimidin-5-yl)-1H-pyrazole-4-carboxamide] yielded an IC50 (Human Calpain 9/NS1) of under 3 µM, an IC50 (Human Calpain 2/NS1) of under 3 µM and an IC50 (Human Calpain 1/NS1) of under 3 µM.
For `Cn1ncc(C(=O)N[C@@H](Cc2ccccc2)C(=O)C(N)=O)c1-c1cccnc1` [Compound 189, (S)—N-(4-amino-3,4-dioxo-1-phenylbutan-2-yl)-1-methyl-5-(pyridin-3-yl)-1H-pyrazole-4-carboxamide], the IC50 (Human Calpain 9/NS1) was under 3 µM, the IC50 (Human Calpain 2/NS1) was under 3 µM and the IC50 (Human Calpain 1/NS1) was under 3 µM.
With `Cc1ccccc1-c1c(C(=O)N[C@@H](Cc2ccccc2)C(=O)C(N)=O)cnn1C` [Compound 190, (S)—N-(4-amino-3,4-dioxo-1-phenylbutan-2-yl)-1-methyl-5-(o-tolyl)-1H-pyrazole-4-carboxamide] the IC50 (Human Calpain 9/NS1) was 3 to 10 µM, the IC50 (Human Calpain 2/NS1) was over 10 µM and the IC50 (Human Calpain 1/NS1) was 3 to 10 µM.
With `Cn1ncc(C(=O)N[C@@H](Cc2ccccc2)C(=O)C(N)=O)c1-c1ncccn1` [Compound 191, (S)—N-(4-amino-3,4-dioxo-1-phenylbutan-2-yl)-1-methyl-5-(pyrimidin-2-yl)-1H-pyrazole-4-carboxamide] the IC50 (Human Calpain 9/NS1) was under 3 µM, the IC50 (Human Calpain 2/NS1) was under 3 µM and the IC50 (Human Calpain 1/NS1) was under 3 µM.
`Cn1cc(C(=O)N[C@@H](Cc2ccccc2)C(=O)C(N)=O)c(-c2ccncn2)n1` [Compound 192, (S)—N-(4-amino-3,4-dioxo-1-phenylbutan-2-yl)-1-methyl-3-(pyrimidin-4-yl)-1H-pyrazole-4-carboxamide] gave an IC50 (Human Calpain 9/NS1) of under 3 µM, an IC50 (Human Calpain 2/NS1) of under 3 µM and an IC50 (Human Calpain 1/NS1) of under 3 µM.
